Calls of active or inactive are those of the source.
Experiments:
Escherichia coli = assay: microbe, parasite or virus in culture
[1] = THP-1 cell cytotoxicity, dose response, cytotoxicity control for non-replicating M. tuberculosis project (AID 489025); format: functional
HEK293 [2] = assay: cells; settings: Homo sapiens
[3] = Luminescence Cell-Based Dose Retest to Confirm Inhibitors of Cancer Stem Cells. [Related pubchem assays (depositor defined):AID2717, AID2721]; format: functional; settings: Homo sapiens
A-375 [4] = assay: MITF: Counter assay: A375 proliferation Measured in Cell-Based System Using Plate Reader - 2084-03_Inhibitor_Dose_DryPowder_Activity. [Related pubchem assays (depositor defined):AID488944]; format: functional; settings: Homo sapiens
[5] = target: T1, Microphthalmia-associated transcription factor (Homo sapiens, UniProt O75030); assay: TRPM1 promoter luciferase signal decrease, dose response, MITF inhibitor project, cell-based, SK-MEL-5, cherry-picked, set 3 (AID 493073); format: functional
T1 sequence (O75030 whole entry): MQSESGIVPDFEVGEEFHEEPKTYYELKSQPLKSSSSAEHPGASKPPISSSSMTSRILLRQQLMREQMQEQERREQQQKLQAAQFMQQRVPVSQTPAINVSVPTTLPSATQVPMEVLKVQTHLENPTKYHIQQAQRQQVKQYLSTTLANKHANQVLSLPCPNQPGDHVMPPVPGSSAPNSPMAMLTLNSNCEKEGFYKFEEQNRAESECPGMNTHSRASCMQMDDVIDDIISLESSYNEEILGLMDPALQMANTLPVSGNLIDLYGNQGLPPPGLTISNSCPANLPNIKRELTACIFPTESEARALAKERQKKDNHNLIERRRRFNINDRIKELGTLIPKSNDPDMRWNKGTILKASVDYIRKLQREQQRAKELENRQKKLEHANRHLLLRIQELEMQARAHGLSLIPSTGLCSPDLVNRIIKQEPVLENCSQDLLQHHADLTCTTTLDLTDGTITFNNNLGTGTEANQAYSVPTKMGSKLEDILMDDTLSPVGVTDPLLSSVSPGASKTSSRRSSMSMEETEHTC

cells = format: functional
HEK293 [6] = assay: cells; settings: Homo sapiens; remark: listed apart in the source
A-375 [7] = assay: A375 melanoma cell viability reduction, dose response, counter-screen for MITF modulator project, cherry-pick samples, set 2 (AID 540335); format: functional, cell-based; settings: Homo sapiens
CAAX prenyl protease 2 [8] = target: CAAX prenyl protease 2 (Saccharomyces cerevisiae S288c, UniProt Q03530); format: biochemical
CAAX prenyl protease 2 [9] = target: CAAX prenyl protease 2 (Homo sapiens, UniProt Q9Y256); assay: human Rce1 protease inhibitors, dose response, biochemical, yeast membranes, quenched-peptide fluorescence, cherry-pick (AID 588849)
[10] = target: T2, DNA repair protein RAD52 homolog (Homo sapiens, UniProt P43351); format: functional, biochemical
T2 sequence (P43351 whole entry): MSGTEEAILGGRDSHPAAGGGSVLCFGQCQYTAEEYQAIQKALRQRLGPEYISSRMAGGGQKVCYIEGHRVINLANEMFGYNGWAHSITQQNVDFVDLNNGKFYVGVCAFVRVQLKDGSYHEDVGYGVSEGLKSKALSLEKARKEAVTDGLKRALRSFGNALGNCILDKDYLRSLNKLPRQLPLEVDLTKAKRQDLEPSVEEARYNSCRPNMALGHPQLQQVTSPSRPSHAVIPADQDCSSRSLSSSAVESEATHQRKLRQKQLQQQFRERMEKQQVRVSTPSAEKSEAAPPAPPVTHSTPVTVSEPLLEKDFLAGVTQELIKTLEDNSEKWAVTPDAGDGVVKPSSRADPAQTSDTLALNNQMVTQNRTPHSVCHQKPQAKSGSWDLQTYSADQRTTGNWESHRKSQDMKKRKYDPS

[11] = target: T3, Short transient receptor potential channel 4 (Mus musculus, UniProt Q9QUQ5); assay: mouse TRPC4 channel activators, dose response, cell-based, HEK293 TRPC4/mu-opioid, Fluo-4 calcium (AID 434937); format: functional
T3 sequence (Q9QUQ5 whole entry): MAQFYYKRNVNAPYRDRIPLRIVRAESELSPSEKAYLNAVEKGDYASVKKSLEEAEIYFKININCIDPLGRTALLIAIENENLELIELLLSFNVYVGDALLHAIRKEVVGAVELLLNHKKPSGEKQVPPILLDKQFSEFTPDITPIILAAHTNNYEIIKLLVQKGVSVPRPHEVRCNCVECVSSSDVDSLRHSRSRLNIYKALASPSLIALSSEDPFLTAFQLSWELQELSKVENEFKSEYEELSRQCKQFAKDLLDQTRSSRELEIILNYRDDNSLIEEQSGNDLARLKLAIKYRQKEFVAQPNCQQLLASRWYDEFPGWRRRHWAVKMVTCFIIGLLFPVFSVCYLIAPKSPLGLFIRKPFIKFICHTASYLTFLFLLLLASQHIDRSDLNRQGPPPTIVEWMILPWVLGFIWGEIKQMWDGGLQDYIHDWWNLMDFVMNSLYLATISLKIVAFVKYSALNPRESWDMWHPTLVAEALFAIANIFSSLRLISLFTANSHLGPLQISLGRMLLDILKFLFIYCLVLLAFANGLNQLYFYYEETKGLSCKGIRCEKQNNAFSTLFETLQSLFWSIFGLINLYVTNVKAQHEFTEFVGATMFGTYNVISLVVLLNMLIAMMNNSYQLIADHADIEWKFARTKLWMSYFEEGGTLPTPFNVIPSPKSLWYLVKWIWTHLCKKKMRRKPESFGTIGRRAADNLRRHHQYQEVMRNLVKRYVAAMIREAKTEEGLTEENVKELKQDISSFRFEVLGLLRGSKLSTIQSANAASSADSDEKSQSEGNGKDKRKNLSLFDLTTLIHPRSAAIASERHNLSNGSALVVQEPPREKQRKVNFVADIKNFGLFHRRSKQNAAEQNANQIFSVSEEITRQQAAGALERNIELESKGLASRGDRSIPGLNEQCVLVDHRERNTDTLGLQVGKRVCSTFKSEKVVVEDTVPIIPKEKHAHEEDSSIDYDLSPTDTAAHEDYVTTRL

[12] = target: Ras and Rab interactor 1/Tyrosine-protein kinase ABL1 (Homo sapiens, UniProt P00519+Q13671); format: functional;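 also: biochemical TR-FRET dose-response test measuring inhibition of binding between Rin1 and Abl proteins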
[13] = target: T4, Alkaline phosphatase, tissue-nonspecific isozyme (Homo sapiens, UniProt P05186); assay: TNAP enzyme activators, dose response, selectivity assay for human IAP activator project, biochemical, TNAP isozyme, human IAP uHTS hits (AID 488886); format: functional;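 also: potency of compounds raising TNAP activity as a selectivity check on IAP activators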
T4 sequence (P05186 whole entry): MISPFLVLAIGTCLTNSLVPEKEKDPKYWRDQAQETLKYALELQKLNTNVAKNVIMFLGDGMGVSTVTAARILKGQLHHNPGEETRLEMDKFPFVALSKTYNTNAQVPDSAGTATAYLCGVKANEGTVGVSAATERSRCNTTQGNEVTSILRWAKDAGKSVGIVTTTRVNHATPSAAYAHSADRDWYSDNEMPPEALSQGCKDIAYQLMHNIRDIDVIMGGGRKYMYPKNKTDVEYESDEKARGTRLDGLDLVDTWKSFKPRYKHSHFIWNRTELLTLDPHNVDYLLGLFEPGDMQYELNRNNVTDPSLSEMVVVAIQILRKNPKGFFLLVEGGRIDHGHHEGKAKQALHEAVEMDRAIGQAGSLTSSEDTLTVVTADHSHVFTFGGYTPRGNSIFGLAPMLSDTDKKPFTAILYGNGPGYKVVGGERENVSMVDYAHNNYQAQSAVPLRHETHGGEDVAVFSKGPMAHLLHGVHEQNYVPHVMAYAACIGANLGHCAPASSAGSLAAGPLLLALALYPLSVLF

[14] = target: T5, Intestinal-type alkaline phosphatase (Homo sapiens, UniProt P09923); assay: human intestinal alkaline phosphatase activators, dose response, biochemical, luminescence, uHTS hits (AID 463120); format: functional
[15] = target: T5, Intestinal-type alkaline phosphatase; assay: human IAP activators, dose response, biochemical, luminescent, uHTS hits, set 2 (AID 488817); format: functional;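 also: potency of activators that raise enzyme activity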
[16] = target: Intestinal-type alkaline phosphatase (Mus musculus, UniProt P24822); assay: PubChem AID 488875; format: functional
HEK293 [17] = assay: NOD2 signaling inhibitors in MDP-stimulated cells, cell-based, uHTS, luminescence (AID 2001); format: functional; settings: Homo sapiens
HEK293 [18] = assay: cells; format: functional, cell-based; settings: Homo sapiens
HEK293 [19] = assay: NOD1 signaling inhibitors, primary screen, cell-based, luminescence, uHTS (AID 1578); format: functional; settings: Homo sapiens
[20] = target: COUP transcription factor 2 (Homo sapiens, UniProt P24468); assay: Luminescence-based cell-based high throughput dose response assay to identify inhibitors of COUP-TFII (NR2F2).; format: functional;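 also: HEK293 cells transiently cotransfected with COUP-TFII expression vector and reporter; luciferase reporter luminescence driven by COUP-TFII from the pX2-168 reporter plasmid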
HEK293 [21] = assay: cells; format: functional, cell-based; settings: Homo sapiens; remark: listed apart in the source
Cytochrome P450 3A4 = Cytochrome P450 3A4 (Homo sapiens, UniProt P08684);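 also: CYP3A4 tested as one member of a cytochrome P450 panel screen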
Chain of Cytochrome P450 3A4 (P08684 whole entry): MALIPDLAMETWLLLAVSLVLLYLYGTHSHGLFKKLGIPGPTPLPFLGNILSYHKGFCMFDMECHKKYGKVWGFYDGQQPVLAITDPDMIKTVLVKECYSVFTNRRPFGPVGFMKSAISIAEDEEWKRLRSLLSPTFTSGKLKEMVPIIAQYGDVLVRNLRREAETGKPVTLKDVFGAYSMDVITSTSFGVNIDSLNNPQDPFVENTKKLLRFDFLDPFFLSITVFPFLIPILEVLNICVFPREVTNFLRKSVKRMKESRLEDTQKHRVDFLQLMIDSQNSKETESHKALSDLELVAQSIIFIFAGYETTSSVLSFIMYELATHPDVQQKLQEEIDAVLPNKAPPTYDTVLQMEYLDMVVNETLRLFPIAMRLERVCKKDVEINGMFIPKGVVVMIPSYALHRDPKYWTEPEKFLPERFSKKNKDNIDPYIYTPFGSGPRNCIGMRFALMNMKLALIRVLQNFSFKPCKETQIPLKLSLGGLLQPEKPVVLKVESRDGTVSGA

T5 sequence (P09923 whole entry): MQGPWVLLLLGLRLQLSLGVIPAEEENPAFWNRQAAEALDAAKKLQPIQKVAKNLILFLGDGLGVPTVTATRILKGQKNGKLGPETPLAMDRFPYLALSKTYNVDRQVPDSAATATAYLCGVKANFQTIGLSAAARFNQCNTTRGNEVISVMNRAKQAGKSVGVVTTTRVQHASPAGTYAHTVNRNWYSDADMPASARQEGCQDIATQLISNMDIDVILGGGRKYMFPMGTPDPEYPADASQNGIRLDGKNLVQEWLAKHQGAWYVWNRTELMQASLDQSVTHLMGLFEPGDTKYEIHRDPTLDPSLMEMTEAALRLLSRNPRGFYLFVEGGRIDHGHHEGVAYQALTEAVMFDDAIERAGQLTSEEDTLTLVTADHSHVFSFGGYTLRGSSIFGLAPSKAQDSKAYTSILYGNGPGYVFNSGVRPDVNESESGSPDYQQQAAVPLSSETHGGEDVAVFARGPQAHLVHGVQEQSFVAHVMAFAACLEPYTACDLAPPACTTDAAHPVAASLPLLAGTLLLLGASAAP
Chain of CAAX prenyl protease 2 (Homo sapiens, UniProt Q9Y256) (Q9Y256 whole entry): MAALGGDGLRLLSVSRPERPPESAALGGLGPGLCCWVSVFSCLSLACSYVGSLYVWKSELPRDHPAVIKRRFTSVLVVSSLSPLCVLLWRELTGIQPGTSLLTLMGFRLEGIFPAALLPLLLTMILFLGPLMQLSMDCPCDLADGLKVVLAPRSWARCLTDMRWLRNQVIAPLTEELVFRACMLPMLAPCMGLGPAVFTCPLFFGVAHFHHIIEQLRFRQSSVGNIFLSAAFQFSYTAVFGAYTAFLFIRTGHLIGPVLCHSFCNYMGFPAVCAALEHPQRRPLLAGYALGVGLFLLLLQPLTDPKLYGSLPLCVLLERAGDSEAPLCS
Chain of Ras and Rab interactor 1/Tyrosine-protein kinase ABL1 (P00519 whole entry): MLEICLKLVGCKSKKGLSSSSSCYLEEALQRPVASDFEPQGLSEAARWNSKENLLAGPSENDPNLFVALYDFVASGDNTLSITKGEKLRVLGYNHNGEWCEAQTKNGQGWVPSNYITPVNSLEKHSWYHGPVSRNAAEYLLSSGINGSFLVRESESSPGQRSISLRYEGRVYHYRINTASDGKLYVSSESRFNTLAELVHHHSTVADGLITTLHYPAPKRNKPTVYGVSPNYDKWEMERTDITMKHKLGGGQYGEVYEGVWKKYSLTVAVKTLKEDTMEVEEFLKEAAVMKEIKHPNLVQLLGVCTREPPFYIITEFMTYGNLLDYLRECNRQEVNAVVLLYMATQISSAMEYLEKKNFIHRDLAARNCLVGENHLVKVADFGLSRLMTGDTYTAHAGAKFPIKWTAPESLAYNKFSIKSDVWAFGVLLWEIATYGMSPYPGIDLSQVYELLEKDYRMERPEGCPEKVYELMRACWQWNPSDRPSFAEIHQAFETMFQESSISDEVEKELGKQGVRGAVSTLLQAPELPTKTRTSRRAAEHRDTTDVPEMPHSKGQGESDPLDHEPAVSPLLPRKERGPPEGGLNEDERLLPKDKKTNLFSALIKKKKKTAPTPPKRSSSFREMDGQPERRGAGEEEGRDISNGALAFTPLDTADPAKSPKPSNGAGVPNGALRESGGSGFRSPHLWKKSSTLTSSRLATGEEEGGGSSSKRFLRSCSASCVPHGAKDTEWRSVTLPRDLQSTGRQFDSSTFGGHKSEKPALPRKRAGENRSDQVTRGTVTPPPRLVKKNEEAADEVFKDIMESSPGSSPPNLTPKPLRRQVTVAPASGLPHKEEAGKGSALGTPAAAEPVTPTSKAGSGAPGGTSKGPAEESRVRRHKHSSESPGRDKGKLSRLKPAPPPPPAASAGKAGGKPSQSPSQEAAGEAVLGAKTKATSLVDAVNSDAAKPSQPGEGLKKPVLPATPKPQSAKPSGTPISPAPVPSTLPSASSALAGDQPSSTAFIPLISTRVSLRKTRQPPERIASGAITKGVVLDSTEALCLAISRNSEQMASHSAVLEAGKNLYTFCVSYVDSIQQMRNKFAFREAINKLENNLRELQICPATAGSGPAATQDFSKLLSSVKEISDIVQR
Chain of Ras and Rab interactor 1/Tyrosine-protein kinase ABL1 (Q13671 whole entry): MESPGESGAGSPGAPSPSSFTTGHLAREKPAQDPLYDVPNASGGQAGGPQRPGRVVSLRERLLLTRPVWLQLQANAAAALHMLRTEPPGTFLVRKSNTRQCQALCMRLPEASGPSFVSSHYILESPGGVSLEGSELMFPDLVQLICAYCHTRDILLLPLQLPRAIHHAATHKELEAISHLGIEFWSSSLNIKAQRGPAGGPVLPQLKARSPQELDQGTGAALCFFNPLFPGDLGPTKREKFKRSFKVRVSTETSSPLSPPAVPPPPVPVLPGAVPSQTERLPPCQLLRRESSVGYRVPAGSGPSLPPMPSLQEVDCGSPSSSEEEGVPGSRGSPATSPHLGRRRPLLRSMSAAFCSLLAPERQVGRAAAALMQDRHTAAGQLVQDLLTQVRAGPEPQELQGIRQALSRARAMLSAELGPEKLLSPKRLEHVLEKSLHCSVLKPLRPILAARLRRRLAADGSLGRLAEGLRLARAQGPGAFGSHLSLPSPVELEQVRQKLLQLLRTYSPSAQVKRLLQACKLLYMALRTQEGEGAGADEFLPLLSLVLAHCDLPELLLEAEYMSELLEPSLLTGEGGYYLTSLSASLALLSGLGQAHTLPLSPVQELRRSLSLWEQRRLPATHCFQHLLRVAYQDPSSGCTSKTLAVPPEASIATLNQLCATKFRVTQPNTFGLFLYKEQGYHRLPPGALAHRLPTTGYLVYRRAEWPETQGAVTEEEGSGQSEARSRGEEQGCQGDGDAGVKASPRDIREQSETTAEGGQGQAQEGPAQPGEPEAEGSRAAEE
Chain of COUP transcription factor 2 (P24468 whole entry): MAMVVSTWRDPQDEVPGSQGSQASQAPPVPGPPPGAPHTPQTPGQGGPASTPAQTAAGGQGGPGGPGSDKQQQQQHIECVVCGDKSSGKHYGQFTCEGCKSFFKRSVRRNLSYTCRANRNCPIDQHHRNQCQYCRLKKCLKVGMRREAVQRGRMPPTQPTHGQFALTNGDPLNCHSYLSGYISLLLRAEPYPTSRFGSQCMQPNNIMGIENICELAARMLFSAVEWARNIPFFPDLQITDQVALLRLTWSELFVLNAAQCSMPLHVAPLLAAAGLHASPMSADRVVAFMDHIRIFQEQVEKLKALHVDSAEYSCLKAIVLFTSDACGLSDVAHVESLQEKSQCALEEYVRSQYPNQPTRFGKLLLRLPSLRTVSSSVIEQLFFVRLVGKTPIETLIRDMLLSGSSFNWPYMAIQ
Chain of Intestinal-type alkaline phosphatase (Mus musculus, UniProt P24822) (P24822 whole entry): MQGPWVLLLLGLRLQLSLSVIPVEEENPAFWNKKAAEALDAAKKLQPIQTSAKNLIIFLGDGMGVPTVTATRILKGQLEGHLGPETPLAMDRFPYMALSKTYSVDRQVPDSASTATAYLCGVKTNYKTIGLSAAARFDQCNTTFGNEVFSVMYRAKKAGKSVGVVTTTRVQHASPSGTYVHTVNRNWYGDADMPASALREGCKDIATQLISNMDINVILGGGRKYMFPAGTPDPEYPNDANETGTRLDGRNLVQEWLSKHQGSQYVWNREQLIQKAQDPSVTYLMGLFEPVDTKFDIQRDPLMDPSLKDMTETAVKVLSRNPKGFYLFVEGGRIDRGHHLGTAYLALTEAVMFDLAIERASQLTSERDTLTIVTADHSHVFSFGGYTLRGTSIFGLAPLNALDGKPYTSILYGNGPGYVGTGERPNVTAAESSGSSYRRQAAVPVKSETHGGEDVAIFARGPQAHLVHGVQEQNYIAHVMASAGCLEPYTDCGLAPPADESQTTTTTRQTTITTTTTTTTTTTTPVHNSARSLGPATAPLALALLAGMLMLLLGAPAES
Chain of CAAX prenyl protease 2 (Saccharomyces cerevisiae S288c, UniProt Q03530) (Q03530 whole entry): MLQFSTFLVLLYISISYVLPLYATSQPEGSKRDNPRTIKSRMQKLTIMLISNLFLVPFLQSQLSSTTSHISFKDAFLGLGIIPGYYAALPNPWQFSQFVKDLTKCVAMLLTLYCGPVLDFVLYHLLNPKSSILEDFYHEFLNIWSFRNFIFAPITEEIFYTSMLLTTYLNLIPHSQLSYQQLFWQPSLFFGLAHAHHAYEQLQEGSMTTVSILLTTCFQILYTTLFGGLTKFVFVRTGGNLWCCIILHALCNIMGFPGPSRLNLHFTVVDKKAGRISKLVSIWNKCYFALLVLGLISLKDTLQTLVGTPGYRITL

With `COCc1cc(O)nc2cc(NC(=O)C(F)(F)F)c(C)cc12` the AC50 (Escherichia coli) was 57.2 µM (active).
In the case of `CC(C)c1ccc(N2C(=O)NC(=O)/C(=C/C=C/c3ccco3)C2=O)cc1`, the CC50 [1] is reported as 31.6 µM (active), the EC50 (HEK293 [2]) is reported as > 59.6 µM (inactive) and the AC50 [3] is reported as 1.81 µM (active). For the same compound, the AC50 (A-375 [4]) was > 35 µM (active), the AC50 [5] was 5.89 µM (active) and the IC50 (cells) was 17.4 µM (active). The EC50 (HEK293 [6]) was > 59.6 µM (inactive) and the AC50 (A-375 [7]) was > 35 µM (active).
With `Cc1nc(-c2ccc(Cl)cc2)sc1C1(C)CC(c2ccccc2Br)=NO1` (centres undefined) the AC50 (CAAX prenyl protease 2 [8]) was > 100 µM (inactive) and the AC50 (CAAX prenyl protease 2 [9]) was > 100 µM (inactive).
With `CCN(c1ccccc1)S(=O)(=O)c1ccc(C(=O)N(CCCN(C)C)c2nc3cc4c(cc3s2)OCO4)cc1` the AC50 [10] was 11.1 µM (active) and the EC50 [11] was 5.31 µM (active).
For `CC(C)n1cc(CN2CCC(C(=O)Nc3cccc(-c4cccc(Cl)c4)c3)CC2)cn1`, the IC50 [12] was 16.4 µM (inactive), the EC50 [13] was 66.1 µM (active) and the EC50 [14] was 82.8 µM (active). The EC50 [15] was 67.3 µM (active) and the EC50 [16] was 88 µM (active).
In the case of `C=CC[n+]1c(-c2ccc(Cl)cc2Cl)csc1Nc1c(C)n(C)n(-c2ccccc2)c1=O`, the IC50 (HEK293 [17]) is reported as 7.13 µM (active), the IC50 (HEK293 [18]) is reported as > 20 µM (inactive) and the EC50 (HEK293 [19]) is reported as 5.29 µM (active). For the same compound, the IC50 [20] was 9.47 µM (active) and the IC50 (HEK293 [21]) was 6.87 µM (active).
For `Cc1nc2c(c(-c3ccccc3)c1C#N)C(=O)c1ccccc1-2`, the AC50 (Cytochrome P450 3A4) was “inconclusive”.
